Experimental data published in US20200147243A1, “LIGAND COMPOUND OF ALPHA7 NICOTINIC ACETYLCHOLINE RECEPTOR AND APPLICATION THEREOF” (BEIJING NORMAL UNIVERSITY, priority 2017, published 2020).
“And” between values parts separate entries of the source, which are not always exact repeats. Equal entries are not always repeated.

Legend:
α4β2 nAChR = target: T1, α4β2 nAChR (Mus musculus, UniProt O70174+Q9ERK7); assay: Selective experiment in mouse brain, cytisine pre-injection; format: in vivo, Kunming mice; details: 1 mg/kg cytisine s.c. 5 min in advance, 60 min after administration
T1 construct: from tissue
T1 sequence (O70174 31-629): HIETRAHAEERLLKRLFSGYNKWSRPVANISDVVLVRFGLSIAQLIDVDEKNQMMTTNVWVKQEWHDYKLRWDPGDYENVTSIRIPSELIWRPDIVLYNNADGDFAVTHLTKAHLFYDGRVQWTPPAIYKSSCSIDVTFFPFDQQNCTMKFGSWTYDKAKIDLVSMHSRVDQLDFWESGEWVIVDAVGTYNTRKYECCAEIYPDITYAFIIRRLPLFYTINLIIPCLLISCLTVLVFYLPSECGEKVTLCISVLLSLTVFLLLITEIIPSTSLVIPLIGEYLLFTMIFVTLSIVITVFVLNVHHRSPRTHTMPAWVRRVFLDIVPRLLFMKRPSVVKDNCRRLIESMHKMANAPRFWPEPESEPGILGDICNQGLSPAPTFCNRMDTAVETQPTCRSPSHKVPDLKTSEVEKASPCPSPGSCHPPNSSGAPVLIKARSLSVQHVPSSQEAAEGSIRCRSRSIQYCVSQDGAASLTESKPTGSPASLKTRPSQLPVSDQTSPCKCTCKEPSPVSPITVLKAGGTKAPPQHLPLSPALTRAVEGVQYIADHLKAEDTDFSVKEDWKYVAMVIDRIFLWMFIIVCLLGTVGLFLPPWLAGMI
T1 sequence (Q9ERK7 26-501): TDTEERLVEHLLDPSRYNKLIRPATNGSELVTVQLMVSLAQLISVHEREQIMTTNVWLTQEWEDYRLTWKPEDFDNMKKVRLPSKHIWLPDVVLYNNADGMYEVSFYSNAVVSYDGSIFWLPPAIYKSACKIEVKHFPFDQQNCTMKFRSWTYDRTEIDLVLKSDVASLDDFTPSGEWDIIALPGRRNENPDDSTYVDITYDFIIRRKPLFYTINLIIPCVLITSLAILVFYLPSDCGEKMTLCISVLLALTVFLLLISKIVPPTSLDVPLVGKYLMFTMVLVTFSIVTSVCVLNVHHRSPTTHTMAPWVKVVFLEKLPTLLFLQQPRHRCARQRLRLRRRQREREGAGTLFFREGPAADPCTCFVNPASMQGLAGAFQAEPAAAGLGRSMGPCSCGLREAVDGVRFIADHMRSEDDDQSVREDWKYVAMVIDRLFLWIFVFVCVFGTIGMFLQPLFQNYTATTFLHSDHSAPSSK
Procedure: (§1) The selectivity of radioligand for α4β2 nAChR was explored by subcutaneously injecting 1 mg/kg of cytisine (0.1 mL, with an equal volume of normal saline and 1,2-propanediol as solvents) 5 min in advance, whereas the selectivity for the 5-hydroxytryptamine receptor was explored by subcutaneously injecting 2 mg/kg of ondanstron (0.1 mL, with saline:DMSO=5:1 (V:V) as solvents) 10 min in advance. In the experiment, two groups of mice (n=5, Kunming females, 28-30 g) were injected with 0.1 mL (60 μCi) of [^18F]

[1] = Lipid water partition coefficient (n-octanol / PBS pH 7.4); format: physicochemical; details: read-out: lipid water partition coefficient log P
[2] = target: T2, 5-hydroxytryptamine receptor (Mus musculus, UniProt P23979); assay: Selective experiment in mouse brain, ondanstron pre-injection; format: in vivo, Kunming mice; details: 2 mg/kg ondanstron s.c. 10 min in advance, 60 min after administration
T2 construct: from tissue
T2 sequence (P23979 24-489): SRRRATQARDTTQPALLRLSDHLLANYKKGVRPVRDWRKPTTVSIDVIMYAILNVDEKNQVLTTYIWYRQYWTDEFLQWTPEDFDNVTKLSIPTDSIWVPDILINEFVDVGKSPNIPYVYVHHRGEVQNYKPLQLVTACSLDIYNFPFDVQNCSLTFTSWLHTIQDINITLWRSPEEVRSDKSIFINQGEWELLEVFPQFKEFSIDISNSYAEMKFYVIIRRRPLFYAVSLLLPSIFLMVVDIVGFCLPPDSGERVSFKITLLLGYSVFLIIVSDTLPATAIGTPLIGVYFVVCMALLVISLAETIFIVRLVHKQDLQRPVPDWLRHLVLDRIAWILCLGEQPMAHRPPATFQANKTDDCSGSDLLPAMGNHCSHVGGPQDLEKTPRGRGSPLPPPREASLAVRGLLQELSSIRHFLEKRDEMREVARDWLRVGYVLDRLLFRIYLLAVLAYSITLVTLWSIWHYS
Procedure: as §1

[3] = Rat PET imaging (micro-PET/CT); format: in vivo; details: female CD-1 rats, images at 15, 30, 60 min
Procedure: The radioligand [^18F] II-15 (0.3 mL, 200 μCi) was injected into bodies of female CD-1 rats (180-200 g) in a manner of tail vein injection, then the rats were anesthetized with 3% isoflurane to be coma, and the rats were fixed in a prone posture on a micro-PET/CT imaging instrument (Super Argus PET 4R L/CT 180) for small animals, maintaining the rats in an anesthetic state by employing 1% isoflurane in the scanning imaging process. Image acquisition was carried out respectively 15 min, 30 min and 60 min after the administration, to observe the distribution condition of [^18F] II-15 in the brains of the rats.

[4] = Experiment of brain region distribution; details: for Absorption, brain residual / Absorption, cerebellum / Absorption, corpus striatum / Absorption, cortex / Absorption, hippocampus / Absorption, superior and inferior colliculus / Absorption, thalamus: tail vein, female Kunming mice; for Tissue/cerebellum Ratio, corpus striatum / Tissue/cerebellum Ratio, cortex / Tissue/cerebellum Ratio, hippocampus / Tissue/cerebellum Ratio, superior and inferior colliculus / Tissue/cerebellum Ratio, thalamus: mouse brain

O=C1c2cc(N3CCN4CCC3CC4)ccc2-c2cccc([18F])c21 [[^18F] II-15]
difference in brain uptake between experimental group and control group (α4β2 nAChR): no significant difference
logP [1]: 1.64 ± 0.12
difference in brain uptake between experimental group and control group [2]: no significant difference
time of highest brain uptake in PET images [3]: 15 min
Absorption, brain residual ([4]; 5 min): 6.03 ± 0.23 % ID/g wet weight
Absorption, brain residual ([4]; 15 min): 5.58 ± 0.50 % ID/g wet weight
Absorption, brain residual ([4]; 30 min): 5.25 ± 0.80 % ID/g wet weight
Absorption, brain residual ([4]; 60 min): 4.21 ± 0.22 % ID/g wet weight
Absorption, brain residual ([4]; 90 min): 2.32 ± 0.26 % ID/g wet weight
Absorption, cerebellum ([4]; 5 min): 5.83 ± 0.01 % ID/g wet weight
Absorption, cerebellum ([4]; 15 min): 5.10 ± 0.35 % ID/g wet weight
Absorption, cerebellum ([4]; 30 min): 4.53 ± 0.14 % ID/g wet weight
Absorption, cerebellum ([4]; 60 min): 2.69 ± 0.10 % ID/g wet weight
Absorption, cerebellum ([4]; 90 min): 1.53 ± 0.10 % ID/g wet weight
Tissue/cerebellum Ratio, corpus striatum ([4]; 5 min): 1.20
Absorption, corpus striatum ([4]; 5 min): 6.99 ± 0.31 % ID/g wet weight
Tissue/cerebellum Ratio, corpus striatum ([4]; 15 min): 1.28
Absorption, corpus striatum ([4]; 15 min): 6.55 ± 0.25 % ID/g wet weight
Tissue/cerebellum Ratio, corpus striatum ([4]; 30 min): 1.85
Absorption, corpus striatum ([4]; 30 min): 8.37±0.27 % ID/g wet weight
Tissue/cerebellum Ratio, corpus striatum ([4]; 60 min): 1.87
Absorption, corpus striatum ([4]; 60 min): 5.01 ± 0.31 % ID/g wet weight
Tissue/cerebellum Ratio, corpus striatum ([4]; 90 min): 2.9 and 2.86
Absorption, corpus striatum ([4]; 90 min): 4.37 ± 0.18 % ID/g wet weight
Tissue/cerebellum Ratio, cortex ([4]; 5 min): 1.24
Absorption, cortex ([4]; 5 min): 7.24 ± 0.33 % ID/g wet weight
Tissue/cerebellum Ratio, cortex ([4]; 15 min): 1.63
Absorption, cortex ([4]; 15 min): 8.31 ± 0.22 % ID/g wet weight
Tissue/cerebellum Ratio, cortex ([4]; 30 min): 2.07
Absorption, cortex ([4]; 30 min): 9.39±0.24 % ID/g wet weight
Tissue/cerebellum Ratio, cortex ([4]; 60 min): 2.29
Absorption, cortex ([4]; 60 min): 6.14 ± 0.34 % ID/g wet weight
Tissue/cerebellum Ratio, cortex ([4]; 90 min): 2.5 and 2.47
Absorption, cortex ([4]; 90 min): 3.77 ± 0.95 % ID/g wet weight
Tissue/cerebellum Ratio, hippocampus ([4]; 5 min): 0.99
Absorption, hippocampus ([4]; 5 min): 5.77 ± 0.17 % ID/g wet weight
Tissue/cerebellum Ratio, hippocampus ([4]; 15 min): 1.20
Absorption, hippocampus ([4]; 15 min): 6.12 ± 0.40 % ID/g wet weight
Tissue/cerebellum Ratio, hippocampus ([4]; 30 min): 1.39
Absorption, hippocampus ([4]; 30 min): 6.31±0.82 % ID/g wet weight
Tissue/cerebellum Ratio, hippocampus ([4]; 60 min): 2.36
Absorption, hippocampus ([4]; 60 min): 6.34 ± 0.72 % ID/g wet weight
Tissue/cerebellum Ratio, hippocampus ([4]; 90 min): 3.6 and 3.63
Absorption, hippocampus ([4]; 90 min): 5.54 ± 0.64 % ID/g wet weight
Tissue/cerebellum Ratio, superior and inferior colliculus ([4]; 5 min): 1.08
Absorption, superior and inferior colliculus ([4]; 5 min): 6.32 ± 0.67 % ID/g wet weight
Tissue/cerebellum Ratio, superior and inferior colliculus ([4]; 15 min): 1.28
Absorption, superior and inferior colliculus ([4]; 15 min): 6.53 ± 0.58 % ID/g wet weight
Tissue/cerebellum Ratio, superior and inferior colliculus ([4]; 30 min): 1.31
Absorption, superior and inferior colliculus ([4]; 30 min): 5.93 ± 0.52 % ID/g wet weight
Tissue/cerebellum Ratio, superior and inferior colliculus ([4]; 60 min): 1.45
Absorption, superior and inferior colliculus ([4]; 60 min): 3.90 ± 0.36 % ID/g wet weight
Tissue/cerebellum Ratio, superior and inferior colliculus ([4]; 90 min): 1.86
Absorption, superior and inferior colliculus ([4]; 90 min): 2.85 ± 0.10 % ID/g wet weight
Tissue/cerebellum Ratio, thalamus ([4]; 5 min): 0.98
Absorption, thalamus ([4]; 5 min): 5.74 ± 0.69 % ID/g wet weight
Tissue/cerebellum Ratio, thalamus ([4]; 15 min): 1.11
Absorption, thalamus ([4]; 15 min): 5.66 ± 0.34 % ID/g wet weight
Tissue/cerebellum Ratio, thalamus ([4]; 30 min): 1.28
Absorption, thalamus ([4]; 30 min): 5.80 ± 0.47 % ID/g wet weight
Tissue/cerebellum Ratio, thalamus ([4]; 60 min): 1.82
Absorption, thalamus ([4]; 60 min): 4.89 ± 0.04 % ID/g wet weight
Tissue/cerebellum Ratio, thalamus ([4]; 90 min): 2.10
Absorption, thalamus ([4]; 90 min): 3.19 ± 0.26 % ID/g wet weight
